What was measured:
[1] = system: sedge, umbrella; test: Test C flooded paddy test; type: in vivo, Cyperus difformis; settings: Flood
Procedure, shortened: (§1)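 Ratings reflect visual comparison with controls on a 0–100 scale, where 100 is complete control. Compound is dosed into standing paddy water 3 cm deep over 2-leaf-stage plants, kept in the greenhouse 13 to 15 days.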

[2] = system: velvetleaf; test: Test A pre-/postemergence herbicide test; type: in vivo, Abutilon theophrasti
Procedure, shortened: (§2)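 Visual 0–100 ratings (100 = complete control) made about 10 days after treatment, greenhouse-held plants compared with untreated controls. Treatments: postemergence sprays on one- to two-leaf plants (2–10 cm tall) and preemergence directed soil sprays after planting in loam–sand, chemicals formulated in non-phytotoxic solvent containing surfactant.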

[3] = system: morningglory; test: Test A pre-/postemergence herbicide test; type: in vivo, Ipomoea spp.
Procedure, shortened: as §2

[4] = system: ducksalad; test: Test C flooded paddy test; type: in vivo, Heteranthera limosa; settings: Flood
Procedure, shortened: as §1

[5] = system: crabgrass, large; test: Test A pre-/postemergence herbicide test; type: in vivo, Digitaria sanguinalis
Procedure, shortened: as §2

[6] = system: rice; test: Test C flooded paddy test; type: in vivo, Oryza sativa; settings: Flood
Procedure, shortened: as §1

[7] = system: barnyardgrass; test: Test C flooded paddy test; type: in vivo, Echinochloa crus-galli; settings: Flood
Procedure, shortened: as §1

[8] = 31 g ai/ha, scale of 0 to 100 where 0 is no effect and 100 is complete control, 13 to 15 days
[9] = 62 g ai/ha, scale of 0 to 100 where 0 is no effect and 100 is complete control, 13 to 15 days
[10] = 125 g ai/ha, scale of 0 to 100 where 0 is no effect and 100 is complete control, 13 to 15 days
[11] = Postemergence, 125 g ai/ha, 0 to 100 scale, 0 no effect, 100 complete control
[12] = Postemergence, 500 g ai/ha, 0 to 100 scale (0 no effect, 100 complete control)
[13] = Preemergence, 125 g ai/ha, visual rating on 0 to 100 scale (0 no effect, 100 complete control)
[14] = preemergence, 500 g ai/ha, 0 to 100 scale
[15] = 125 g ai/ha, visual rating, 0 to 100 scale, 0 no effect, 100 complete control, approximately 10 days, preemergence
[16] = Postemergence, 125 g ai/ha, 0 to 100 scale, 0 is no effect, 100 is complete control
[17] = preemergence, 500 g ai/ha, 0 to 100 scale, 0 is no effect and 100 is complete control
[18] = 250 g ai/ha, scale of 0 to 100 where 0 is no effect and 100 is complete control, 13 to 15 days
[19] = Preemergence, 125 g ai/ha, 0 to 100 scale where 0 is no effect and 100 is complete control

| SMILES | Plant response rating, Sedge, Umbrella [1, 8] | Plant response rating, Sedge, Umbrella [1, 9] | Plant response rating, Sedge, Umbrella [1, 10] | Plant response rating, Sedge, Umbrella ([1]; 250 g ai/ha, scale 0 to 100) | Plant response rating, Morningglory [3, 12] | Plant response rating, Ducksalad [4, 8] | Plant response rating, Ducksalad [4, 9] | Plant response rating, Ducksalad [4, 10] | Plant response rating, Ducksalad ([4]; 250 g ai/ha, scale 0 to 100) | Plant response rating, Crabgrass, Large [5, 12] | Plant response rating, Rice [6, 8] | Plant response rating, Rice [6, 9] | Plant response rating, Rice [6, 10] | Plant response rating, Rice ([6]; 250 g ai/ha, scale 0 to 100) | Plant response rating, Barnyardgrass [7, 8] | Plant response rating, Barnyardgrass [7, 9] | Plant response rating, Barnyardgrass [7, 10] | Plant response rating, Barnyardgrass ([7]; 250 g ai/ha, scale 0 to 100) | Plant response rating, Velvetleaf [2, 17] | Plant response rating, Morningglory [3, 17] | also measured |
| --- | --- | --- | --- | --- | --- | --- | --- | --- | --- | --- | --- | --- | --- | --- | --- | --- | --- | --- | --- | --- | --- |
| O=C1NCC(c2ccc(F)cc2)C1C(=O)Nc1ccccc1F (racemic) [Compound 16] | 0 | 0 | 0 | 0 | 10 | 0 | 40 | 85 | 100 | 90 | 0 | 0 | 0 | 0 | 0 | 0 | 0 | 15 |  |  | Plant response rating, Velvetleaf [2, 11]: 0; Plant response rating, Velvetleaf [2, 12]: 0; Velvetleaf plant response rating [2, 13]: 0; Plant response rating, Velvetleaf [2, 14]: 0; Plant response rating, Morningglory [3, 11]: 0; Morningglory plant response rating [3, 13]: 0; Plant response rating, Morningglory [3, 14]: 0; Plant response rating, Crabgrass, Large [5, 11]: 90; Crabgrass, Large plant response rating [5, 13]: 90; Plant response rating, Crabgrass, Large [5, 14]: 90 |
| O=C1NCC(c2cccc(C(F)(F)F)c2)C1C(=O)Nc1ccccc1Cl (racemic) [Compound 189] |  |  | 0 | 0 |  |  |  | 75 | 80 |  |  |  | 0 | 0 |  |  | 10 | 30 | 0 | 0 | Plant response rating, Sedge, Umbrella ([1]; 500 g ai/ha, scale 0 to 100): 0; Plant response rating, Sedge, Umbrella ([1]; 1000 g ai/ha, scale 0 to 100): 0; Plant response rating, Velvetleaf [2, 15]: 0; Plant response rating, Velvetleaf [2, 16]: 0; Velvetleaf plant response rating (0 to 100 scale, 0 is no effect, 100 is complete control) ([2]; Postemergence, 500 g ai/ha): 0; Plant response rating, Morningglory [3, 15]: 0; Plant response rating, Morningglory [3, 16]: 0; Morningglory plant response rating (0 to 100 scale, 0 is no effect, 100 is complete control) ([3]; Postemergence, 500 g ai/ha): 0; Plant response rating, Ducksalad ([4]; 500 g ai/ha, scale 0 to 100): 95; Plant response rating, Ducksalad ([4]; 1000 g ai/ha, scale 0 to 100): 100; Plant response rating, Crabgrass, Large [5, 15]: 90; Plant response rating, Crabgrass, Large [5, 16]: 60; Crabgrass, Large plant response rating (0 to 100 scale, 0 is no effect, 100 is complete control) ([5]; Postemergence, 500 g ai/ha): 80; Plant response rating, Crabgrass, Large [5, 17]: 90; Plant response rating, Rice ([6]; 500 g ai/ha, scale 0 to 100): 0; Plant response rating, Rice ([6]; 1000 g ai/ha, scale 0 to 100): 0; Plant response rating, Barnyardgrass ([7]; 500 g ai/ha, scale 0 to 100): 50; Plant response rating, Barnyardgrass ([7]; 1000 g ai/ha, scale 0 to 100): 75 |
| O=C1NCC(c2ccc(C(F)(F)F)nc2)C1C(=O)Nc1cccc(F)c1F (racemic) [Compound 263] | 0 | 0 | 0 |  | 60 | 70 | 90 | 100 |  | 90 | 0 | 0 | 0 |  | 20 | 35 | 45 |  | 50 | 0 | Plant response rating, Sedge, Umbrella [1, 18]: 0; Plant response rating, Velvetleaf [2, 19]: 50; Plant response rating, Morningglory [3, 19]: 0; Plant response rating, Ducksalad [4, 18]: 100; Plant response rating, Crabgrass, Large [5, 16]: 80; Plant response rating, Crabgrass, Large [5, 19]: 90; Plant response rating, Crabgrass, Large [5, 17]: 100; Plant response rating, Rice [6, 18]: 15; Plant response rating, Barnyardgrass [7, 18]: 80 |

— patent publication US10294202B2, “Pyrrolidinones as herbicides” (FMC Corporation, priority 2013, dated 2019)
